Results taken from PMC5003509 (Journal of Medicinal Chemistry, 2015).

What was measured:
[1] = Metabolic stability in mouse liver microsomes, glucuronidation; format: in vitro ADME; conditions: in the presence of UDPGA
[2] = In vivo pharmacokinetics in CD1 mice; conditions: male, CD1, mouse, plasma, iv, 10 mg/kg
[3] = Metabolic stability in mouse liver microsomes, CYP-mediated; format: in vitro ADME; conditions: cofactor for CYP-dependent oxidation
[4] = target: recombinant human DAAO (Homo sapiens, UniProt P14920); assay: In vitro DAAO assay; format: biochemical
recombinant human DAAO, sequence (P14920 whole entry): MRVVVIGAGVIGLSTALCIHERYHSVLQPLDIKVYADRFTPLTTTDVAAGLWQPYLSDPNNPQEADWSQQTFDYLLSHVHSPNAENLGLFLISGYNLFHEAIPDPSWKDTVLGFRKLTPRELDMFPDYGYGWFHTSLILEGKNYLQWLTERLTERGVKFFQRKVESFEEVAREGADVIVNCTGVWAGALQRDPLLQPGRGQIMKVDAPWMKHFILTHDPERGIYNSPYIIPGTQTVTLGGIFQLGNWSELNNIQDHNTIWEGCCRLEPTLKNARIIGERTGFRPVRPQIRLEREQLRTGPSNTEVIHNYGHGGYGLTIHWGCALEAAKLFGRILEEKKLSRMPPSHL

[5] = test system: Salmonella typhimurium strain (TA100); assay: Ames test; format: cell-based; conditions: TA100, in the presence or absence of metabolic activation by S9 mixture
[6] = target: hERG channel (Homo sapiens, UniProt Q12809); assay: hERG channel assay; conditions: concentrations up to 25 μM
hERG channel, sequence (Q12809 whole entry): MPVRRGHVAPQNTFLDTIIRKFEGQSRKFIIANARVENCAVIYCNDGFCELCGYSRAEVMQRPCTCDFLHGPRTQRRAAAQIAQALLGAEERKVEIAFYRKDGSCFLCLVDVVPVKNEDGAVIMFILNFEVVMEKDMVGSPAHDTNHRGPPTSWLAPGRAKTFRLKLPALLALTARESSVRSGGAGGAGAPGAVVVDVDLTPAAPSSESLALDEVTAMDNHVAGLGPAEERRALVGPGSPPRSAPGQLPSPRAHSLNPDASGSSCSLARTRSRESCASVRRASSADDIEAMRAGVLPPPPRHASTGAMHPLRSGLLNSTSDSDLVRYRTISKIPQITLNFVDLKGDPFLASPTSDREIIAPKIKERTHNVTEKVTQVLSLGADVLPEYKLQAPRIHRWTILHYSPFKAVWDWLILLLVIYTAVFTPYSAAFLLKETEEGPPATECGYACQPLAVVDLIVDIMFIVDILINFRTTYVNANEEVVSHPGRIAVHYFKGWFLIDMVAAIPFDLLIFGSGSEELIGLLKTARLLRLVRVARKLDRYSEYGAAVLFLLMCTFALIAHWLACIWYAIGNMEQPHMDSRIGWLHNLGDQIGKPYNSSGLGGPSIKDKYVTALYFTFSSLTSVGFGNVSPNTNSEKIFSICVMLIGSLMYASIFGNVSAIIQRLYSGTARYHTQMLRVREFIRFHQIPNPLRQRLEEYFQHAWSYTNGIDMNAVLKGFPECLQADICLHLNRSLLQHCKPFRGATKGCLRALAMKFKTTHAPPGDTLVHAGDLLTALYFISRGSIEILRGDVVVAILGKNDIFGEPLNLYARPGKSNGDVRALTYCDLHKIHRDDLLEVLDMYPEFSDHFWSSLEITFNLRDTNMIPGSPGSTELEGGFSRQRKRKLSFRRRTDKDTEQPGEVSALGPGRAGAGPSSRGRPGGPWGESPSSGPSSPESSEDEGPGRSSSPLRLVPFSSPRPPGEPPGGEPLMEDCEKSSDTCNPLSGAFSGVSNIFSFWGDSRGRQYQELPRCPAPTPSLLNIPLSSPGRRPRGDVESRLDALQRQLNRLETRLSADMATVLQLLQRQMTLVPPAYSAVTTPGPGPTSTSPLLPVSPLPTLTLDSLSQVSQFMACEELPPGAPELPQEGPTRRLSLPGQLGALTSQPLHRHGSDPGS

[7] = test system: NMDA receptor (agonist); assay: NMDA receptor; format: binding; conditions: at 10 μM
[8] = test system: NMDA receptor (phencyclidine); assay: NMDA receptor; format: binding; conditions: at 10 μM
[9] = test system: NMDA receptor (MK801); assay: NMDA receptor; format: binding; conditions: at 10 μM
[10] = test system: glycine receptor (strychnine sensitive); assay: Glycine receptor; format: binding; conditions: at 10 μM
[11] = Effect on plasma pharmacokinetics of oral D-serine in mice; conditions: 11h (30 mg/kg, po) with D-serine (30 mg/kg, po)

Structure (SMILES): O=c1[nH]nc(CCc2cc(F)cc(F)c2)cc1O [8b, reference compound]
- glucuronidation in mouse liver microsomes [1]: some resistance to glucuronidation
- AUC(0-t) [2]: 12700 ng·h/mL

Structure (SMILES): O=c1[nH]c(=O)n(CCc2ccccc2)nc1O [11e, 6-Hydroxy-2-phenethyl-1,2,4-triazine-3,5(2H,4H)-dione]
- glucuronidation in mouse liver microsomes [1]: completely resistant to glucuronidation
- stability in mouse liver microsomes in the presence of NADPH [3]: stable

Structure (SMILES): O=c1[nH]c(=O)n(Cc2cccc3ccccc23)nc1O [11h, 6-Hydroxy-2-(naphthalen-1-ylmethyl)-1,2,4-triazine-3,5(2H,4H)-dione]
- effect of FAD concentration on IC50 ([4]; escalation of FAD concentration from 10 to 100 μM): did not affect IC50 value
- mode of inhibition ([4]; versus D-serine, double reciprocal plot): competitive inhibition
- glucuronidation in mouse liver microsomes [1]: completely resistant to glucuronidation
- stability in mouse liver microsomes in the presence of NADPH [3]: stable
- mutagenicity [5]: No evidence of mutagenicity
- hERG channel inhibition [6]: no inhibition at concentrations up to 25 μM
- inhibition, NMDA receptor (agonist) [7]: ≤5% inhibition at 10 μM
- inhibition, NMDA receptor (phencyclidine) [8]: ≤5% inhibition at 10 μM
- inhibition, NMDA receptor (MK801) [9]: ≤5% inhibition at 10 μM
- inhibition, glycine receptor (strychnine sensitive) [10]: ≤5% inhibition at 10 μM
- effect on plasma clearance of D-serine [11]: substantially reduced

Structure (SMILES): O=c1cc(CSc2ccc(Cl)c(Cl)c2)occ1O [compound 7, reference compound]
- glucuronidation in mouse liver microsomes [1]: extensively glucuronidated

Structure (SMILES): O=c1[nH]c(=S)n(CCc2ccccc2)nc1O [compound 30, 6-Hydroxy-2-phenethyl-3-thioxo-3,4-dihydro-1,2,4-triazin-5(2H)-one]
- glucuronidation in mouse liver microsomes [1]: metabolically stable against glucuronidation

Structure (SMILES): O=c1[nH]c(=O)n(CCc2ccccc2)cc1O [compound 32, 5-Hydroxy-1-phenethylpyrimidine-2,4(1H,3H)-dione]
- glucuronidation in mouse liver microsomes [1]: fully glucuronidated within 60 min
